# Experimental data: US11104674B2 (Hoffmann-La Roche Inc., priority 2016, dated 2021)
# Tested on: HBsAg
# Assay: HBsAg assay (chemiluminescence immunoassay of secreted HBsAg)
# Type: cell-based, HBV
# Conditions: Hepatitis B virus, HepG2.2.15, HBsAg secretion, HepG2.2.15 cells, CLIA of culture supernatant
# Protocol: HepG2.2.15 cells (Acs et al. Proc Natl Acad Sci USA, 84, (1987), 4641-4), a constitutively HBV-expressing cell line were cultured in DMEM+Glutamax-I medium (Invitrogen, Carlsbad, Calif., USA), supplemented with 10% fetal bovine serum (Invitrogen) and G418 (Invitrogen) at a final concentration of 200 mg/L and maintained in 5% CO2 at 37° C.
# HepG2.2.15 cells were seeded in duplicate into white, 96-well plates at 1.5×10^4 cells/well. The cells were treated with a three-fold serial dilution series of the compounds in DMSO. The final DMSO concentration in all wells was 1% and DMSO was used as no drug control.
# The HBsAg chemiluminescence immunoassay (CLIA) kit (Autobio Diagnostics Co., Zhengzhou, China, Catalog number: CL0310-2) was used to measure the levels of secreted HBV antigens semi-quantitatively. For the detection 50 μL/well culture supernatant was used and HBsAg was quantified using HBsAg chemiluminescence immunoassay (CLIA) kit (Autobio Diagnostics Co., Zhengzhou, China, Catalog number: CL0310-2), 50 μL of the supernatant was transferred to the CLIA assay plate and 50 μL of enzyme conjugate reagent was added into each well. The plates were sealed and gently agitated for 1 hour at room temperature. The supernatant-enzyme-mixture was discarded and wells were washed 6 times with 300 μL of PBS.
# The residual liquid was removed by plating the CLIA plate right side down on absorbent tissue paper. 25 μL of substrates A and B were added to each well. Luminance was measured using a luminometer (Mithras LB 940 Multimode Microplate Reader) after 10 minutes incubation. Dose-response curves were generated and the IC50 value was extrapolated by using the E-WorkBook Suite (ID Business Solutions Ltd., Guildford, UK). The IC50 was defined as the compound concentration (or conditioned media log dilution) at which HBsAg secretion was reduced by 50% compared to the no drug control.
# The compounds according to formula I were tested for their capacity to inhibit HBsAg as described herein.
row,Compound,IC50 [nM]
1,"CC1CN(c2cc(F)cc(N3CCc4nc(-c5ncccn5)ncc4C3C)n2)CCO1 (centres unmarked) [Example 5, 4-[4-fluoro-6-(5-methyl-2-pyrimidin-2-yl-7,8-dihydro-5H-pyrido[4,3-d]pyrimidin-6-yl)-2-pyridyl]-2-methyl-morpholine]",20
2,"CC1c2cnc(-c3ncccn3)nc2CCN1c1cc(N2CCC(F)(F)C2)cc(F)n1 (centres unmarked) [Example 22, 6-[4-(3,3-difluoropyrrolidin-1-yl)-6-fluoro-2-pyridyl]-5-methyl-2-pyrimidin-2-yl-7,8-dihydro-5H-pyrido[4,3-d]pyrimidine]",4
3,"COC1CCN(c2cc(N3CCc4nc(-c5ncccn5)ncc4C3C)cc(F)n2)C1 (centres unmarked) [Example 108, 6-[2-Fluoro-6-(3-methoxypyrrolidin-1-yl)-4-pyridyl]-5-methyl-2-pyrimidin-2-yl-7,8-dihydro-5H-pyrido[4,3-d]pyrimidine]",13
4,"COC1CN(c2cc(N3CCc4nc(-c5ncccn5)ncc4C3C)cc(F)n2)C1 (centres unmarked) [Example 148, 6-[2-Fluoro-6-(3-methoxyazetidin-1-yl)-4-pyridyl]-5-methyl-2-pyrimidin-2-yl-7,8-dihydro-5H-pyrido[4,3-d]pyrimidine]",21
5,"CC1c2cnc(-c3ncccn3)nc2CCN1c1cc(N(C)C(=O)C2CC2)cc(F)n1 (centres unmarked) [Example 156, N-[2-Fluoro-6-(5-methyl-2-pyrimidin-2-yl-7,8-dihydro-5H-pyrido[4,3-d]pyrimidin-6-yl)-4-pyridyl]-N-methyl-cyclopropanecarboxamide]",30
6,"CC1c2cnc(-c3ncccn3)nc2CCN1c1cc(F)cc(N2CCOC(C(=O)O)C2)n1 (centres unmarked) [Example 27, 4-[4-fluoro-6-(5-methyl-2-pyrimidin-2-yl-7,8-dihydro-5H-pyrido[4,3-d]pyrimidin-6-yl)-2-pyridyl]morpholine-2-carboxylic acid]",3760
7,"CC1COCCN1c1cc(F)cc(N2CCc3nc(-c4ncccn4)ncc3C2C)n1 (centres unmarked) [Example 41, 4-[4-fluoro-6-(5-methyl-2-pyrimidin-2-yl-7,8-dihydro-5H-pyrido[4,3-d]pyrimidin-6-yl)-2-pyridyl]-3-methyl-morpholine]",17
8,"CC1c2cnc(-c3ncccn3)nc2CCN1c1cc(NC2CCS(=O)(=O)CC2)cc(F)n1 (centres unmarked) [Example 138, N-(1,1-dioxothian-4-yl)-2-fluoro-6-(5-methyl-2-pyrimidin-2-yl-7,8-dihydro-5H-pyrido[4,3-d]pyrimidin-6-yl)pyridin-4-amine]",663
9,"CC1c2cnc(-c3ncccn3)nc2CCN1c1cc(N2CCC(NS(C)(=O)=O)CC2)cc(F)n1 (centres unmarked) [Example 88, N-[1-[2-fluoro-6-(5-methyl-2-pyrimidin-2-yl-7,8-dihydro-5H-pyrido[4,3-d]pyrimidin-6-yl)-4-pyridyl]-4-piperidyl]methanesulfonamide]",18
10,"CC1c2cnc(-c3ncccn3)nc2CCN1c1cc(F)cc(NCCCCCC(=O)O)n1 (centres unmarked) [Example 2, 6-[[4-fluoro-6-(5-methyl-2-pyrimidin-2-yl-7,8-dihydro-5H-pyrido[4,3-d]pyrimidin-6-yl)-2-pyridyl]amino]hexanoic acid]",155
11,"CC1c2cnc(-c3ccccn3)nc2CCN1c1cc(F)cc(N2CCCC(C(N)=O)C2)n1 (centres unmarked) [Example 76, 1-[4-fluoro-6-[5-methyl-2-(2-pyridyl)-7,8-dihydro-5H-pyrido[4,3-d]pyrimidin-6-yl]-2-pyridyl]piperidine-3-carboxamide]",44
12,"CC1c2cnc(-c3ncccn3)nc2CCN1c1cc(N2CCCCS2(=O)=O)cc(F)n1 (centres unmarked) [Example 162, 2-[2-Fluoro-6-(5-methyl-2-pyrimidin-2-yl-7,8-dihydro-5H-pyrido[4,3-d]pyrimidin-6-yl)-4-pyridyl]thiazinane1,1-dioxide]",15
13,"CC1c2cnc(-c3ncccn3)nc2CCN1c1cc(N2CCN(S(C)(=O)=O)CC2)cc(F)n1 (centres unmarked) [Example 58, 6-[6-fluoro-4-(4-methylsulfonylpiperazin-1-yl)-2-pyridyl]-5-methyl-2-pyrimidin-2-yl-7,8-dihydro-5H-pyrido[4,3-d]pyrimidine]",15
14,"CC1c2cnc(-c3ccccn3)nc2CCN1c1cc(F)cc(N2CCC(C(N)=O)C2)n1 (centres unmarked) [Example 61, 1-[4-fluoro-6-[5-methyl-2-(2-pyridyl)-7,8-dihydro-5H-pyrido[4,3-d]pyrimidin-6-yl]-2-pyridyl]pyrrolidine-3-carboxamide]",22
15,"CC1CN(c2cc(F)nc(N3CCc4nc(-c5ncccn5)ncc4C3C)c2)CCO1 (centres unmarked) [Example 4, 4-[2-fluoro-6-(5-methyl-2-pyrimidin-2-yl-7,8-dihydro-5H-pyrido[4,3-d]pyrimidin-6-yl)-4-pyridyl]-2-methyl-morpholine]",8
16,"CC1c2cnc(-c3ncccn3)nc2CCN1c1cc(F)cc(N2CCC(O)C2)n1 (centres unmarked) [Example 37, 1-[4-fluoro-6-(5-methyl-2-pyrimidin-2-yl-7,8-dihydro-5H-pyrido[4,3-d]pyrimidin-6-yl)-2-pyridyl]pyrrolidin-3-ol]",11
17,"CC1c2cnc(-c3ncccn3)nc2CCN1c1cc(F)cc(N2CC(F)(F)C2)n1 (centres unmarked) [Example 125, 6-[6-(3,3-difluoroazetidin-1-yl)-4-fluoro-2-pyridyl]-5-methyl-2-pyrimidin-2-yl-7,8-dihydro-5H-pyrido[4,3-d]pyrimidine]",38
18,"CCC1CN(c2cc(F)cc(N3CCc4nc(-c5ncccn5)ncc4C3C)n2)CCO1 (centres unmarked) [Example 7, 2-ethyl-4-[4-fluoro-6-(5-methyl-2-pyrimidin-2-yl-7,8-dihydro-5H-pyrido[4,3-d]pyrimidin-6-yl)-2-pyridyl]morpholine]",42
19,"CC1c2cnc(-c3ncccn3)nc2CCN1c1cc(F)cc(N2CCC(C(=O)O)CC2)n1 (centres unmarked) [Example 51, 1-[4-fluoro-6-(5-methyl-2-pyrimidin-2-yl-7,8-dihydro-5H-pyrido[4,3-d]pyrimidin-6-yl)-2-pyridyl]piperidine-4-carboxylic acid]",346
20,"CC1c2cnc(-c3ncccn3)nc2CCN1c1cc(F)cc(N2CCC(C(N)=O)C2)n1 (centres unmarked) [Example 45, 1-[4-fluoro-6-(5-methyl-2-pyrimidin-2-yl-7,8-dihydro-5H-pyrido[4,3-d]pyrimidin-6-yl)-2-pyridyl]pyrrolidine-3-carboxamide]",18
21,"CC1c2cnc(-c3ncccn3)nc2CCN1c1cc(F)cc(N2CCC2)n1 (centres unmarked) [Example 109, 6-[6-(azetidin-1-yl)-4-fluoro-2-pyridyl]-5-methyl-2-pyrimidin-2-yl-7,8-dihydro-5H-pyrido[4,3-d]pyrimidine]",21
22,"CC1C(=O)NCCN1c1cc(F)nc(N2CCc3nc(-c4ncccn4)ncc3C2C)c1 (centres unmarked) [Example 117, 4-[2-fluoro-6-(5-methyl-2-pyrimidin-2-yl-7,8-dihydro-5H-pyrido[4,3-d]pyrimidin-6-yl)-4-pyridyl]-3-methyl-piperazin-2-one]",106
23,"CC1c2cnc(-c3ncccn3)nc2CCN1c1cc(N2CCCC2=O)cc(F)n1 (centres unmarked) [Example 113, 1-[2-Fluoro-6-(5-methyl-2-pyrimidin-2-yl-7,8-dihydro-5H-pyrido[4,3-d]pyrimidin-6-yl)-4-pyridyl]pyrrolidin-2-one]",4
24,"CC1c2cnc(-c3ccccn3)nc2CCN1c1cc(N2CCC(C(N)=O)CC2)cc(F)n1 (centres unmarked) [Example 73, 1-[2-fluoro-6-[5-methyl-2-(2-pyridyl)-7,8-dihydro-5H-pyrido[4,3-d]pyrimidin-6-yl]-4-pyridyl]piperidine-4-carboxamide]",10
25,"CC(=O)N1CCN(c2cc(F)cc(N3CCc4nc(-c5ccccn5)ncc4C3C)n2)CC1 (centres unmarked) [Example 70, 1-[4-[4-fluoro-6-[5-methyl-2-(2-pyridyl)-7,8-dihydro-5H-pyrido[4,3-d]pyrimidin-6-yl]-2-pyridyl]piperazin-1-yl]ethanone]",16
26,"CC1c2cnc(-c3ncccn3)nc2CCN1c1cc(N2CC(O)C2)cc(F)n1 (centres unmarked) [Example 124, 1-[2-Fluoro-6-(5-methyl-2-pyrimidin-2-yl-7,8-dihydro-5H-pyrido[4,3-d]pyrimidin-6-yl)-4-pyridyl]azetidin-3-ol]",33
27,"CC1c2cnc(-c3ncccn3)nc2CCN1c1cc(F)cc(N2CC(C(=O)O)C(C)(C)C2)n1 (centres unmarked) [Example 92, 1-[4-fluoro-6-(5-methyl-2-pyrimidin-2-yl-7,8-dihydro-5H-pyrido[4,3-d]pyrimidin-6-yl)-2-pyridyl]-4,4-dimethyl-pyrrolidine-3-carboxylic acid]",139
28,"CC1c2cnc(-c3ncccn3)nc2CCN1c1cc(N2CCCC2C(N)=O)cc(F)n1 (centres unmarked) [Example 42, 1-[2-fluoro-6-(5-methyl-2-pyrimidin-2-yl-7,8-dihydro-5H-pyrido[4,3-d]pyrimidin-6-yl)-4-pyridyl]pyrrolidine-2-carboxamide]",319
29,"CC1c2cnc(-c3ncccn3)nc2CCN1c1cc(F)cc(N2CCOC(CO)C2)n1 (centres unmarked) [Example 25, [4-[4-fluoro-6-(5-methyl-2-pyrimidin-2-yl-7,8-dihydro-5H-pyrido[4,3-d]pyrimidin-6-yl)-2-pyridyl]morpholin-2-yl]methanol]",46
